Measured values published in ChEMBL document CHEMBL4007459, “Design of Potent mRNA Decapping Scavenger Enzyme (DcpS) Inhibitors with Improved Physicochemical Properties To Investigate the Mechanism of Therapeutic Benefit in Spinal Muscular Atrophy (SMA)” (J Med Chem, 2017).
Values after ≈ are worked out from the molar mass of the structure shown.

Key:
[1] = target: T1, Dihydrofolate reductase (Homo sapiens, UniProt P00374); experiment: Inhibition of DHFR (unknown origin)
T1 sequence (P00374 whole entry): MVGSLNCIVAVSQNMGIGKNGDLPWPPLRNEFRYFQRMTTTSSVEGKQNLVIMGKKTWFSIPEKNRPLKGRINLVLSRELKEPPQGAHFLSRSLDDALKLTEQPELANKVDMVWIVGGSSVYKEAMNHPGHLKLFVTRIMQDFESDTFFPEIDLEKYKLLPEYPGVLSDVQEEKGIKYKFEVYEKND

[2] = Apparent intrinsic clearance in human liver microsomes at 1 uM; assay type: ADME, microsome; settings: read-out: CLH(app)
[3] = Apparent passive permeability across apical to basolateral side in RRCK2 cells at 2 uM; assay type: ADME, cell-based, Canis lupus familiaris; settings: dog, MDCK
[4] = Kinetic solubility of the compound at pH 6.5; settings: buffer
[5] = Lipophilicity, log D of the compound at pH 7.4; assay type: physicochemical; settings: buffer
[6] = test system: Plasma; experiment: Unbound fraction in FVB/N mouse plasma at 30 mg/kg, ip; assay type: ADME, organism-based; settings: in vivo
[7] = Stability in human liver microsomes at 1 uM; assay type: ADME, microsome; settings: read-out: Stability
[8] = Drug uptake in HEK293 cells at 10 nM in presence of vacuolar type ATPase inhibitor bafilomycin measured after […]; assay type: ADME, cell-based; settings: human, 0.01 µM
[9] = Drug uptake in HEK293 cells at 10 nM in presence of vacuolar type ATPase inhibitor concanamycin A measured after […]; assay type: ADME, cell-based; settings: human, 0.01 µM
[10] = Drug uptake in lymphoblasts (unknown origin) at 10 nM in presence of vacuolar type ATPase inhibitor concanamycin A measured after […]; assay type: ADME, cell-based; settings: lymphoblast, 0.01 µM
[11] = Drug uptake in lymphoblasts (unknown origin) at 10 nM in presence of vacuolar type ATPase inhibitor bafilomycin measured after […]; assay type: ADME, cell-based; settings: lymphoblast, 0.01 µM
[12] = target: T2, m7GpppX diphosphatase (Homo sapiens, UniProt Q96C86)
T2 sequence (Q96C86 whole entry): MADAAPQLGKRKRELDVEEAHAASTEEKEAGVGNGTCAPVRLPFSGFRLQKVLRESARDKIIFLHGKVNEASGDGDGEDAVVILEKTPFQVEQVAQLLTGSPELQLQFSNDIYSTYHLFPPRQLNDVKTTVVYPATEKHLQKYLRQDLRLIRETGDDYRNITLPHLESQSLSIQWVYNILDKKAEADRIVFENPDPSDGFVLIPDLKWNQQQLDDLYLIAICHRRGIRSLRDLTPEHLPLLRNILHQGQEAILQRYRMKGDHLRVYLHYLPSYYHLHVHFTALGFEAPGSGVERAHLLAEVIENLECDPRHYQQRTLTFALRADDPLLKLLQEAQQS
Description: Inhibition of human DcpS assessed as increase in SMN2 promoter activity

[13] = Drug uptake in HEK293 cells at 100 nM in presence of vacuolar type ATPase inhibitor concanamycin A measured after […]; assay type: ADME, cell-based; settings: human, 0.1 µM
[14] = Drug uptake in HEK293 cells at 100 nM in presence of vacuolar type ATPase inhibitor bafilomycin measured after […]; assay type: ADME, cell-based; settings: human, 0.1 µM
[15] = Drug uptake in lymphoblasts (unknown origin) at 100 nM in presence of vacuolar type ATPase inhibitor concanamycin A measured after […]; assay type: ADME, cell-based; settings: lymphoblast, 0.1 µM
[16] = Drug uptake in lymphoblasts (unknown origin) at 100 nM in presence of vacuolar type ATPase inhibitor bafilomycin measured after […]; assay type: ADME, cell-based; settings: lymphoblast, 0.1 µM

In the case of Nc1nc(N)c2c(COc3ccccc3F)cccc2n1, the IC50 [1] is reported as greater than 30 µM.

With COC[C@@H](C)Oc1cccc2nc(N)nc(N)c12 the IC50 [1] was 25 µM.

Work on N#Cc1cc(F)cc(OCc2cccc3nc(N)nc(N)c23)c1 yielded an IC50 [1] of 52 µM, a microsomal CLint at 1 µM [2] of less than 8.4 µL/min/mg and a Papp A→B at 2 µM [3] of 13 ×10⁻⁶ cm/s. The solubility kinetic [4] was 31 µM (≈ 9.59 µg/mL), the logD [5] was 1.9 and the “Cp(f)” value [6] was 173 nM. For the same molecule, the half-life at 1 µM [7] was greater than 115 min.

Nc1nc(N)c2c(COc3cccc(F)c3)cccc2n1 gave an IC50 [1] greater than 50 µM.

Nc1nc(N)c2c(OCc3cc(F)cc(F)c3)cccc2n1 showed an IC50 [1] of 0.63 µM.

In the case of Nc1nc(N)c2c(COc3ccc(F)cc3F)cccc2n1, the IC50 [1] is reported as greater than 50 µM.

In the case of Nc1nc(N)c2c(OCC3CCN(Cc4c(Cl)cccc4Cl)CC3)cccc2n1, the Drug uptake [8] is reported as “Not Active”, the Drug uptake [9] is reported as “Not Active” and the Drug uptake [10] is reported as “Not Active”. For the same molecule, the Drug uptake [11] was “Not Active”, the microsomal CLint at 1 µM [2] was greater than 250 µL/min/mg and the Papp A→B at 2 µM [3] was 0.62 ×10⁻⁶ cm/s. The solubility kinetic [4] was 45 µM (≈ 19.5 µg/mL), the logD [5] was 2.8 and the half-life at 1 µM [7] was 3 min.

Cc1cc(COc2cc(F)cc(C#N)c2)c2c(N)nc(N)nc2c1 showed an IC50 [12] greater than 10 µM.

In the case of Cc1ncccc1OCc1cccc2nc(N)nc(N)c12, the Drug uptake [8] is reported as “Not Active”, the Drug uptake [9] is reported as “Not Active” and the Drug uptake [10] is reported as “Not Active”. The Drug uptake [11] was “Not Active”, the IC50 [1] was greater than 150 µM and the microsomal CLint at 1 µM [2] was less than 8 µL/min/mg. It also gave a Papp A→B at 2 µM [3] of 18 ×10⁻⁶ cm/s, a solubility kinetic [4] of 274 µM (≈ 77.1 µg/mL) and a logD [5] of 1.4. It also gave a half-life at 1 µM [7] greater than 120 min.

With CCN(CC)CCCC(C)Nc1ccnc2cc(Cl)ccc12 (centres undefined) [CHLOROQUINE] the Drug uptake [13] was “Not Active”, the Drug uptake [14] was “Not Active” and the Drug uptake [15] was “Not Active”. The Drug uptake [16] was “Not Active”.

Nc1nc(N)c2c(OCC3CCOCC3)cccc2n1 showed an IC50 [1] of 28 µM.

CC1(COc2cccc3nc(N)nc(N)c23)COC1 showed an IC50 [1] of 15 µM.

Molecule COC[C@H](C)Oc1cccc2nc(N)nc(N)c12 has an IC50 [1] of 1.4 µM.

In the case of Nc1nc(N)c2c(OCC3CCN(Cc4c(F)cccc4Cl)CC3)cccc2n1, the Drug uptake [8] is reported as “Not Active”, the Drug uptake [9] is reported as “Not Active” and the Drug uptake [10] is reported as “Not Active”. The Drug uptake [11] was “Not Active”.

For Nc1nc(N)c2c(OCC3CCN(Cc4ccccc4F)CC3)cccc2n1, the Drug uptake [8] was “Not Active”, the Drug uptake [9] was “Not Active” and the Drug uptake [10] was “Not Active”. For the same molecule, the Drug uptake [11] was “Not Active”.

Work on Cc1cc(OCC2CCOCC2)c2c(N)nc(N)nc2c1 yielded an IC50 [12] greater than 10 µM.

For Nc1nc(N)c2c(COc3cccc(Cl)c3)cccc2n1, the IC50 [1] was 38 µM.
